Data published in US9526713B2, “Use of dencichine in preparation of drug for treating thrombocytopenia” (KUNMING SHENGHUO PHARMACEUTICAL (GROUP) CO., LTD., priority 2013, dated 2016).
Read-outs that look alike come from different tables or passages of the source.

How the values were obtained:
[1] = Body weight of rats suffering thrombopenia induced by carboplatin; assay type: in vivo, Wistar rats
Experimental: (§1) 81 rats are prepared and randomly divided into eight groups: • blank control group, • high-dose group A (4 mg/kg, intraperitoneal injection, non modeling), • model group (40 mg/kg, tail vein injection), • interleukin-11 group (260 μg/kg, subcutaneous injection), • high dose group B (4 mg/kg, intraperitoneal injection, modeling), • high dose group (4 mg/kg, intraperitoneal injection), • middle dose group (1 mg/kg, intraperitoneal injection), and • low dose group (0.25 mg/kg, intraperitoneal injection),
wherein, the Model group has 11 rats, and the other groups has 10 rats respectively. Before the experiment, the animals are asked to adapt the environment for 2 days, and then blood is taken from their tails for detecting hematological index.
After administration for 10 days, blood is taken from tails of rats from blank control group, high-dose group A, and positive drug group respectively for detecting hematological index.
(§2) Thereafter, all animals, except for those of blank group and high-dose group A, are individually injected with carboplatin (40 mg/kg) for modeling, and followed by successive administration for 15 days. During these 15 days, the rats of high-dose group A and high dose group B are stopped from administration, and taken blood from the tail on 5th day, 10th day and 15th day after the modeling respectively for detecting hematological indices. After 15th day of modeling, carboplatin (40 mg/kg) is injected again for a second modeling, and all the groups take successive administration according to the foregoing method, once a day for successive 10 days. Before each hematological indices detection, animals are weighed respectively. Taking the tails' blood of rats on 5th day after the second injection of carboplatin for detecting hematological indices, and taking the tails' blood of rats on 10th day after the second injection of carboplatin for detecting the indices of hematology, reticulocytes and coagulation; and weighing animals and killing them; and weighing liver, thymus, spleen and adrenal gland taken from the dead rats, and calculating out viscera indices; further taking out marrow for doing pathological examination.

[2] = Organ index of rats suffering thrombopenia induced by carboplatin; assay type: in vivo, Wistar rats
Experimental: as §1, §2

[3] = assay type: in vivo, BALB/C mice
Experimental: Health BALB/C mice (body weight 18˜22 g) are randomly divided into six groups with 12 mice for each group:
Except the normal group, the mice of the remain five groups are injected with anti-mouse platelet serum (APS) of the guinea pig with a dose of 100 μl/20 g body weight, via intraperitoneal injection, on the 1st, 3rd, 5th, 7th, 9th, 11th and 13th day of the experiment.
The mice of each group are given intragastric administration from the first day. […] The mice of the prednisone acetate group are given intragastric administration of suspension of prednisone acetate at 5 mg/(kg·d). The mice of other groups are given intragastric administration of same volumetric of normal saline at 0.2 ml/20 g body weight. Intragastric administration for once each day, and continuous administration for 14 days.
The weights of mice of each group are respectively measured before modeling, on 7th test day, and on 14th test day.

[4] = test system: thrombocyte aggregation; assay: Thrombocyte aggregation rate of rats injected with carboplatin; assay type: in vivo, rat
Description: So far, it has been reported that a little dencichine can be used as hemostatic drug in prior art, as disclosed in the patent application with publication No. CN1292376A that administrating a little dencichine can achieve hemostasis. However, it has never been reported that dencichine is able to treat Thrombocytopenia.

[5] = high dose group A, 4 mg/kg i.p., non modeling
[6] = high dose group B, 4 mg/kg i.p., prophylactic, modeling
[7] = low dose group, 0.25 mg/kg i.p.
[8] = middle dose group, 1 mg/kg i.p.

SMILES: N[C@@H](CNC(=O)C(=O)O)C(=O)O [Dencichine, β-N-oxalyl-L-α, β-diaminopropionic acid]
- body weight ([1]; high dose group, 4 mg/kg i.p., 5th day after second injection of carboplatin): 324.6 ± 23.20 g
- body weight ([1]; high dose group, 4 mg/kg i.p., 10th day after first injection of carboplatin): 314.0 ± 27.14 g
- body weight ([1]; high dose group, 4 mg/kg i.p., 10th day after second injection of carboplatin): 316.6 ± 15.35 g
- body weight ([1]; high dose group, 4 mg/kg i.p., 15th day after first injection of carboplatin): 341.8 ± 32.01 g
- body weight ([1]; high dose group, 4 mg/kg i.p., before experiment): 188.8 ± 9.64 g
- body weight ([1]; high dose group, 4 mg/kg i.p., prophylactic administration for 10 days): 285.8 ± 20.94 g
- body weight ([1]; low dose group, 0.25 mg/kg i.p., 5th day after first injection of carboplatin): 302.6 g
- body weight ([1]; low dose group, 0.25 mg/kg i.p., 5th day after second injection of carboplatin): 325.9 g
- body weight ([1]; low dose group, 0.25 mg/kg i.p., 10th day after first injection of carboplatin): 317.2 g
- body weight ([1]; low dose group, 0.25 mg/kg i.p., 10th day after second injection of carboplatin): 325.2 g
- body weight ([1]; low dose group, 0.25 mg/kg i.p., 15th day after first injection of carboplatin): 343.2 g
- body weight ([1]; low dose group, 0.25 mg/kg i.p., before experiment): 189.6 g
- body weight ([1]; low dose group, 0.25 mg/kg i.p., prophylactic administration for 10 days): 288.7 g
- body weight ([1]; middle dose group, 1 mg/kg i.p., 5th day after first injection of carboplatin): 291.5 ± 26.18 g
- body weight ([1]; middle dose group, 1 mg/kg i.p., 5th day after second injection of carboplatin): 328.0 ± 33.38 g
- body weight ([1]; middle dose group, 1 mg/kg i.p., 10th day after first injection of carboplatin): 315.0 ± 19.28 g
- body weight ([1]; middle dose group, 1 mg/kg i.p., 10th day after second injection of carboplatin): 334.0 ± 28.15 g
- body weight ([1]; middle dose group, 1 mg/kg i.p., 15th day after first injection of carboplatin): 329.8 ± 23.77 g
- body weight ([1]; middle dose group, 1 mg/kg i.p., before experiment): 186.2 ± 11.31 g
- body weight ([1]; middle dose group, 1 mg/kg i.p., prophylactic administration for 10 days): 282.8 ± 17.29 g
- organ index, Adrenal gland [2, 5]: 0.03 ± 0.004 g/100 g body weight
- organ index, Liver [2, 5]: 3.33 ± 0.22 g/100 g body weight
- organ index, Spleen [2, 5]: 0.28 ± 0.05 g/100 g body weight
- organ index, Thymus gland [2, 5]: 0.18 ± 0.08 g/100 g body weight
- organ index, Adrenal gland [2, 6]: 0.03 ± 0.01 g/100 g body weight
- organ index, Liver [2, 6]: 3.70 ± 0.31 g/100 g body weight
- organ index, Spleen [2, 6]: 0.36 ± 0.10 g/100 g body weight
- organ index, Thymus gland [2, 6]: 0.10 ± 0.03 g/100 g body weight
- organ index, Adrenal gland ([2]; high dose group, 4 mg/kg i.p.): 0.03 ± 0.004 g/100 g body weight
- organ index, Liver ([2]; high dose group, 4 mg/kg i.p.): 3.61 ± 0.46 g/100 g body weight
- organ index, Spleen ([2]; high dose group, 4 mg/kg i.p.): 0.32 ± 0.11 g/100 g body weight
- organ index, Thymus gland ([2]; high dose group, 4 mg/kg i.p.): 0.11 ± 0.02 g/100 g body weight
- organ index, Adrenal gland [2, 7]: 0.03 ± 0.004 g/100 g body weight
- organ index, Liver [2, 7]: 3.71 ± 0.21 g/100 g body weight
- organ index, Spleen [2, 7]: 0.35 ± 0.06 g/100 g body weight
- organ index, Thymus gland [2, 7]: 0.11 ± 0.02 g/100 g body weight
- organ index, Adrenal gland [2, 8]: 0.03 ± 0.01 g/100 g body weight
- organ index, Liver [2, 8]: 3.50 ± 0.52 g/100 g body weight
- organ index, Spleen [2, 8]: 0.32 ± 0.10 g/100 g body weight
- organ index, Thymus gland [2, 8]: 0.09 ± 0.04 g/100 g body weight
- body weight ([3]; high dose group (6 mg/kg per Table 8) intragastric, Day 0): 19.5 ± 1.5 g
- body weight ([3]; high dose group (6 mg/kg per Table 8) intragastric, Day 7): 19.8 ± 1.4 g
- body weight ([3]; high dose group (6 mg/kg per Table 8) intragastric, Day 14): 20.3 ± 1.8 g
- body weight ([3]; low dose group (1.5 mg/kg per Table 8) intragastric, Day 0): 20.2 ± 2.0 g
- body weight ([3]; low dose group (1.5 mg/kg per Table 8) intragastric, Day 7): 20.4 ± 1.5 g
- body weight ([3]; low dose group (1.5 mg/kg per Table 8) intragastric, Day 14): 21.1 ± 1.6 g
- body weight ([3]; middle dose group (3 mg/kg) intragastric, Day 0): 19.9 ± 1.9 g
- body weight ([3]; middle dose group (3 mg/kg) intragastric, Day 7): 20.1 ± 1.7 g
- body weight ([3]; middle dose group (3 mg/kg) intragastric, Day 14): 20.8 ± 1.7 g
- thrombocyte aggregation rate [4]: increasing thrombocyte aggregation rate
